{
  "source": "paper PMC5538702",
  "about": "“Inhibitory effects and mechanism of dihydroberberine on hERG channels expressed in HEK293 cells” (PLoS ONE, 2017)",
  "target": "T1, human ether-a-go-go-related gene (hERG) potassium channel (Homo sapiens, UniProt Q12809)",
  "T1 construct": "gene KCNH2; WT hERG stably expressed in HEK293 cells",
  "T1 sequence (Q12809 whole entry, the tested form may be a part)": "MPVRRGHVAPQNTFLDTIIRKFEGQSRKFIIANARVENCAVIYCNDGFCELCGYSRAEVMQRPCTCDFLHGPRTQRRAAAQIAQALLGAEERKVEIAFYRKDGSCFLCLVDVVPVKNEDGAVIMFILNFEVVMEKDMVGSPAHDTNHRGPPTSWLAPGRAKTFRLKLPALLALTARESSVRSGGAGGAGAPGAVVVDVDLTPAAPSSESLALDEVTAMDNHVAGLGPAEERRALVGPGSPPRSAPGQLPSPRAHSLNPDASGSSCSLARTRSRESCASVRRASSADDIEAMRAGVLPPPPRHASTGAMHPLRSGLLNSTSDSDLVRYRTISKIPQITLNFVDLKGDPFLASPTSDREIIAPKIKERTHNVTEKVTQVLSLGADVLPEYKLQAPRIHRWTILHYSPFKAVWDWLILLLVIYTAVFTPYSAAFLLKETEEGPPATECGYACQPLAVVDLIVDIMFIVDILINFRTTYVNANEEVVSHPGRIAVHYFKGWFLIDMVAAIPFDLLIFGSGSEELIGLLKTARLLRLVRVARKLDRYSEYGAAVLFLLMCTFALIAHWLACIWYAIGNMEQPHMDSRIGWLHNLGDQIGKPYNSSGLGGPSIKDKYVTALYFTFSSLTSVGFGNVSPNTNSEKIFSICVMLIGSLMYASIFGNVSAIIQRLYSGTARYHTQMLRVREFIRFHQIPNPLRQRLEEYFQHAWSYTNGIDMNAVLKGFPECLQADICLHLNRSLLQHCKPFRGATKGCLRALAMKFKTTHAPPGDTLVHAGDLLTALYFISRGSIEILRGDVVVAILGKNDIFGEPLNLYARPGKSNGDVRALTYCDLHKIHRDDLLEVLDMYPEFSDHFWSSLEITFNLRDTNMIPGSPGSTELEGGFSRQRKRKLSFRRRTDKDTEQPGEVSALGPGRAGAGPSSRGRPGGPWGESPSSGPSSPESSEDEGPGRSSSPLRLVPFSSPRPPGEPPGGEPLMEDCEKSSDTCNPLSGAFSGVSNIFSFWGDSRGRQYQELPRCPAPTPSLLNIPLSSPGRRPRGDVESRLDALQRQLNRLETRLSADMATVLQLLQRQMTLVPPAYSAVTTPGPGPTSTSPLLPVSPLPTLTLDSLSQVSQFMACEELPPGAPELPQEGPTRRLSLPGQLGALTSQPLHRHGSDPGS",
  "experiment": "whole-cell patch clamp of hERG tail current, immediate perfusion; acute block lost in Y652A and F656V mutants",
  "assay_type": "cell-based",
  "data": [
    {"molecule": "COc1ccc2c(c1OC)CN1CCc3cc4c(cc3C1=C2)OCO4", "note": "[DHB, dihydroberberine]", "values": [
      {"measurement": "IC50", "value": 10.5, "unit": "µM"}
    ]}
  ]
}
